According to paper PMC10291553, “Exploring Structure–Activity Relationships in Photodynamic Therapy Anticancer Agents Based on Ir(III)-COUPY Conjugates” (Journal of Medicinal Chemistry, 2023):
Like-named read-outs stand apart in the source and are kept apart here.

Key:
SK-MEL-28 = experiment: Photo- and cytotoxic activity determination (MTT), SK-MEL-28 cells; format: cell-based, human; settings: normoxia; for SK-MEL-28 PI (phototherapeutic index), IC50 dark/IC50 irradiated: dark tested up to 100 μM
Text: (§1) Having shown that the Ir(III)-COUPY conjugates can sensitize both type I and II ROS through spectroscopic techniques and readily internalize into living cells, their photocytotoxicity was screened in various cancer cell lines. This screening included two representative melanoma cell lines (human A375 and […] human SK-MEL-28) and cancer cells with resistance to the clinical drug cisplatin. For the latter, both sensitive and cisplatin-resistant ovarian cancer cells (A2780 and A2780cis) as well as HeLa cells, which also show a degree of chemoresistance to the platinum anticancer drug in vitro,[54] were used. For the determination of dark and light cytotoxicity, dose–response curves were assayed from both conditions to provide the correspondent IC50 values, which correspond to the concentration needed for inhibition of cell growth by 50%. Phototherapeutic index (PI) was calculated as the ratio of dark to light IC50 value for each compound.
(§2) A375, HeLa, and SK-MEL-28 cells were cultured in Dulbecco’s modified Eagle medium (DMEM) supplemented with 10% FBS, L-glutamine, and 1% penicillin–streptomycin. A2780 and A2780cis cells were grown in RPMI-1640 cell medium supplemented with 10% fetal bovine serum (FBS) and 2 mM L-glutamine. Acquired resistance to cisplatin in the A2780cis cell line was maintained by adding cisplatin 1 μM to culture medium every second passage. Cells were cultured in a humidified incubator at 310 K with 5% CO2 atmosphere and subcultured two or three times a week with appropriate densities and were confirmed to be mycoplasma-free using a standard Hoechst DNA staining method.
(§3) A2780, A2780cis, HeLa, A375, and SK-MEL-28 cells were maintained at logarithmic growth-phase and cultured in 96-well plates at a density of 5000 cells/well in complete medium for 24 h at 310 K, 5% CO2 in a humidified incubator. For hypoxia experiments, a hypoxia condition was set up by Tissue Culture Service at University of Murcia using nitrogen (N2) to displace O2 down to a minimum of 2% in a Forma Steri-Cycle i160 incubator (Thermo Fisher Scientific). Serial dilutions of the compounds were added at the final concentrations in the range of 0–100 μM in a final volume of 100 μL per well. A light-based treatment schedule was performed as follows: 1 h incubation with the compounds in the dark, followed by 1 h incubation under irradiation conditions by placing the Photoreactor EXPO-LED from Luzchem (Canada) fitted with green lamps (final light intensity applied of 1.5 mW/cm^2 at λmax = 520 nm) inside the CO2 incubator. All the cell culture plates subjected to light irradiation included untreated controls to verify that cell viability was not affected by light. Then, treatment-containing media was removed, and fresh media was added for a 48 h cell recovery period; the temperature throughout the experiment remained at 310 K. Dark control samples were placed in the same dark conditions and then kept incubated for 1 h in the dark in the humidified CO2 incubator. Medium was then aspirated by suction, cells were loaded with 50 μL of MTT solution (1 mg/mL) for additional 4 h and then removed, and 50 μL of DMSO was added to solubilize the purple formazan crystals formed in active cells. The absorbance was measured at 570 nm using a microplate reader (FLUOstar Omega), and the IC50 values were calculated based on the inhibitory rate curves using the following equation [drawing 4] 4 where I represents the percentage inhibition of viability observed, Imax is the maximal inhibitory effect, IC50 is the concentration that inhibits 50% of maximal growth, C is the concentration of the treatment, and n is the slope of the semi-logarithmic dose–response sigmoidal curves. The non-linear fitting was performed using SigmaPlot 14.0 software. All experiments were performed in three independent studies with n = 3 replicates per concentration level. For a detailed phototoxicity procedure, ref ([43]) includes technical explanations.

HeLa = experiment: Photo- and cytotoxic activity determination (MTT), HeLa cells; format: cell-based; settings: normoxia; for HeLa PI (phototherapeutic index), IC50 dark/IC50 irradiated: dark tested up to 100 μM
Text: as §1, §2, §3

A2780 = experiment: Photo- and cytotoxic activity determination (MTT), A2780 cells; format: cell-based; settings: normoxia; for A2780 PI (phototherapeutic index), IC50 dark/IC50 irradiated: dark tested up to 100 μM
Text: as §1, §2, §3

A2780cis cells = experiment: Photo- and cytotoxic activity determination (MTT), A2780cis cells, normoxia or hypoxia; format: cell-based; settings: for Hypoxia PI (phototherapeutic index) / Normoxia PI (phototherapeutic index): dark tested up to 250 μM; for A2780cis PI (phototherapeutic index), IC50 dark/IC50 irradiated: dark tested up to 100 μM
Text: as §1, §2
as §3, with “Serial dilutions of the compounds were added at the final concentrations in the range of 0–100 μM in a final volume of 100 μL per well.” left out

[1] = Homo sapiens, SK-MEL-28, 1 h incubation + 1 h green light 520 nm, 1.5 mW cm^–2, 48 h drug-free medium, read-out: SK-MEL-28 light IC50
[2] = Homo sapiens, SK-MEL-28, kept in the dark, 2 h treatment, 48 h drug-free medium, read-out: SK-MEL-28 dark IC50
[3] = Homo sapiens, HeLa, 1 h incubation + 1 h green light 520 nm, 1.5 mW cm^–2, 48 h drug-free medium, read-out: HeLa light IC50
[4] = Homo sapiens, HeLa, kept in the dark, 2 h treatment, 48 h drug-free medium, read-out: HeLa dark IC50
[5] = Homo sapiens, A2780, 1 h incubation + 1 h green light 520 nm, 1.5 mW cm^–2, 48 h drug-free medium, read-out: A2780 light IC50
[6] = Homo sapiens, A2780, kept in the dark, 2 h treatment, 48 h drug-free medium, read-out: A2780 dark IC50
[7] = 250 μM, A2780cis, 2 h incubation in the dark, 48 h drug-free recovery, hypoxia, read-out: Partial inhibition (% of cell growth inhibition with respect to untreated controls), Hypoxia
[8] = 250 μM, A2780cis, 2 h incubation in the dark, 48 h drug-free recovery, normoxia, read-out: Partial inhibition (% of cell growth inhibition with respect to untreated controls), Normoxia
[9] = A2780cis, hypoxia 2% O2, 520 nm
[10] = A2780cis, hypoxia 2% O2, dark, tested up to 250 μM, read-out: Hypoxia Dark IC50
[11] = A2780cis, hypoxia, 520 nm, read-out: A2780cis Light 520 nm IC50 (microM) Hypoxia
[12] = A2780cis, hypoxia, dark, read-out: A2780cis Dark IC50 (microM) Hypoxia
[13] = A2780cis, normoxia 21% O2, 520 nm
[14] = A2780cis, normoxia 21% O2, dark, tested up to 250 μM, read-out: Normoxia Dark IC50
[15] = A2780cis, normoxia, dark, up to 250 microM, read-out: A2780cis Dark IC50 (microM) Normoxia

Compound	IC50 (SK-MEL-28; [1])	IC50 (SK-MEL-28; [2])	SK-MEL-28 PI (phototherapeutic index), IC50 dark/IC50 irradiated (SK-MEL-28; 520 nm)	IC50 (HeLa; [3])	IC50 (HeLa; [4])	HeLa PI (phototherapeutic index), IC50 dark/IC50 irradiated (HeLa; 520 nm)	IC50 (A2780; [5])	IC50 (A2780; [6])	A2780 PI (phototherapeutic index), IC50 dark/IC50 irradiated (A2780; 520 nm)	inhibition at 250 µM (A2780cis cells; [7])	inhibition at 250 µM (A2780cis cells; [8])	Hypoxia PI (phototherapeutic index) (A2780cis cells; [9])	IC50 (A2780cis cells; [10])	IC50 (A2780cis cells; [11])	IC50 (A2780cis cells; [12])	Normoxia PI (phototherapeutic index) (A2780cis cells; [13])	IC50 (A2780cis cells; [14])	IC50 (A2780cis cells; [15])	A2780cis PI (phototherapeutic index), IC50 dark/IC50 irradiated (A2780cis cells; normoxia, 520 nm)	further results
CCN(CC)c1ccc2c(c1)O/C(=C(/C#N)c1cc[n+](C)cc1)C=C2C [1a]	1.2 ± 0.1 µM	> 100 µM	> 86	5.8 ± 0.4 µM	> 100 µM	> 17	5.2 ± 0.5 µM	> 100 µM	> 19	2.1 ± 0.4%	3.5 ± 0.9%	> 100.0	> 250 µM	2.5 ± 0.2 µM	> 250 µM	> 119.1	> 250 µM	> 250 µM	> 48	IC50 (A2780cis cells; A2780cis, normoxia, 1 h incubation + 1 h green light 520 nm, 1.5 mW cm^–2, 48 h drug-free medium, read-out: A2780cis light IC50): 2.1 ± 0.2 µM; IC50 (A2780cis cells; A2780cis, normoxia, kept in the dark, tested up to 100 μM, 2 h treatment, 48 h drug-free medium, read-out: A2780cis dark IC50): > 100 µM
CC1=C/C(=C(\C#N)c2cc[n+](C)cc2)Oc2ccccc21 [1b]	> 100 µM	> 100 µM	–	> 100 µM	> 100 µM	–	> 100 µM	> 100 µM	–	4.5 ± 0.6%	24 ± 3%	–	> 250 µM	> 250 µM	> 250 µM	–	> 250 µM	> 250 µM	–	IC50 (SK-MEL-28; Homo sapiens, SK-MEL-28, 520 nm, read-out: SK-MEL-28 Light 520 nm IC50 (microM) Normoxia): > 100 µM; IC50 (SK-MEL-28; Homo sapiens, SK-MEL-28, dark, read-out: SK-MEL-28 Dark IC50 (microM) Normoxia): > 100 µM; IC50 (HeLa; Homo sapiens, HeLa, 520 nm, read-out: HeLa Light 520 nm IC50 (microM) Normoxia): > 100 µM; IC50 (HeLa; Homo sapiens, HeLa, dark, read-out: HeLa Dark IC50 (microM) Normoxia): > 100 µM; IC50 (A2780; Homo sapiens, A2780, 520 nm, read-out: A2780 Light 520 nm IC50 (microM) Normoxia): > 100 µM; IC50 (A2780; Homo sapiens, A2780, dark, read-out: A2780 Dark IC50 (microM) Normoxia): > 100 µM; IC50 (A2780cis cells; A2780cis, hypoxia 2% O2, 1 h incubation + 1 h green light 520 nm, 48 h drug-free, read-out: Hypoxia 520 nm IC50): > 250 µM; IC50 (A2780cis cells; A2780cis, normoxia 21% O2, 1 h incubation + 1 h green light 520 nm, 48 h drug-free, read-out: Normoxia 520 nm IC50): > 250 µM; IC50 (A2780cis cells; A2780cis, normoxia, 520 nm, read-out: A2780cis Light 520 nm IC50 (microM) Normoxia): > 250 µM
CCCCn1c2[n+](c3cc(C(=O)OC)ccc31)[Ir-3]13([c]4ccccc4-c4[nH]c5ccccc5[n+]41)([c]1ccccc1-c1[nH]c4ccccc4[n+]13)[n+]1c-2ccc2ccccc21 [2a]	–	–	> 36	–	–	> 1.3	–	–	> 25	–	–	> 22.7	> 250 µM	–	–	> 71.4	> 250 µM	–	> 29	IC50 (SK-MEL-28; 1 h incubation + 1 h green light 520 nm, 1.5 mW cm^–2, 48 h drug-free medium, read-out: SK-MEL-28 light IC50): 2.8 ± 0.3 µM; IC50 (SK-MEL-28; kept in the dark, 2 h treatment, 48 h drug-free medium, read-out: SK-MEL-28 dark IC50): > 100 µM; IC50 (HeLa; 1 h incubation + 1 h green light 520 nm, 1.5 mW cm^–2, 48 h drug-free medium, read-out: HeLa light IC50): 75 ± 6 µM; IC50 (HeLa; kept in the dark, 2 h treatment, 48 h drug-free medium, read-out: HeLa dark IC50): > 100 µM; IC50 (A2780; 1 h incubation + 1 h green light 520 nm, 1.5 mW cm^–2, 48 h drug-free medium, read-out: A2780 light IC50): 4 ± 1 µM; IC50 (A2780; kept in the dark, 2 h treatment, 48 h drug-free medium, read-out: A2780 dark IC50): > 100 µM; Partial inhibition (% of cell growth inhibition with respect to untreated controls), Hypoxia (A2780cis cells; 250 μM, A2780cis, 2 h incubation in the dark, 48 h drug-free recovery, hypoxia): 56 ± 6%; Partial inhibition (% of cell growth inhibition with respect to untreated controls), Normoxia (A2780cis cells; 250 μM, A2780cis, 2 h incubation in the dark, 48 h drug-free recovery, normoxia): 62 ± 4%; IC50 (A2780cis cells; hypoxia, 520 nm, read-out: A2780cis Light 520 nm IC50 (microM) Hypoxia): 11 ± 2 µM; IC50 (A2780cis cells; hypoxia, dark, read-out: A2780cis Dark IC50 (microM) Hypoxia): > 250 µM; IC50 (A2780cis cells; normoxia, 1 h incubation + 1 h green light 520 nm, 1.5 mW cm^–2, 48 h drug-free medium, read-out: A2780cis light IC50): 3.5 ± 0.4 µM; IC50 (A2780cis cells; normoxia, dark, up to 250 microM, read-out: A2780cis Dark IC50 (microM) Normoxia): > 250 µM; IC50 (A2780cis cells; normoxia, kept in the dark, tested up to 100 μM, 2 h treatment, 48 h drug-free medium, read-out: A2780cis dark IC50): > 100 µM
